According to patent US11109593B2, “Isoxazolin-5-one derivative and herbicide containing same as active ingredient” (HOKKO CHEMICAL INDUSTRY CO., LTD., priority 2017, dated 2021):

Experiments:
Format in all cases: in vivo
[1] = system: broad leaf weeds (Lindernia pyxidaria and Monochoria vaginalis); assay: Test Example 2: herbicidal effect test by treatment during growing period in paddy rice cultivation (seven days after seeding); conditions: 120 g/10a active ingredient, assessed 14 days after treatment, dry weight vs untreated area; for pest or weed control at 1200 g/ha: 336 h
Procedure, shortened: (§1)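 Greenhouse flooded-pot test, seeds sown in puddled paddy soil; emulsion applied into water 7 d after seeding, 120 g a.i./10 a. Dry-weight-based herbicidal rate at 14 d, n=2.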

Echinochloa crus-galli [2] = assay: as above; conditions: 120 g/10a active ingredient, assessed 14 days after treatment, dry weight vs untreated area; for pest or weed control at 1200 g/ha: Echinochloa crus-galli, 336 h, read-out: herbicidal rate (%) Echinochloa crus-galli
Procedure, shortened: as §1

Scirpus juncoides [3] = assay: as above; conditions: 120 g/10a active ingredient, assessed 14 days after treatment, dry weight vs untreated area; for pest or weed control at 1200 g/ha: Schoenoplectiella juncoides, 336 h, read-out: herbicidal rate (%) Scirpus juncoides
Procedure, shortened: as §1

southern crabgrass [4] = assay: Test Example 4: herbicidal effect test by treatment of leave and stem in dry field farming (seven days after seeding); conditions: 120 g/10a active ingredient, emulsion sprayed seven days after seeding, evaluated 14 days after treatment; for pest or weed control at 1200 g/ha: Digitaria ciliaris, 336 h, read-out: herbicidal effect (herbicidal rate), southern crabgrass
Procedure, shortened: (§2)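 Duplicate pots were scored 14 days post-spray by dry weight, herbicidal rate = {1 − treated/untreated average dry weight} × 100. The water-diluted emulsion, equivalent to 120 g active ingredient per 10 ares in 100 L, was applied seven days after sowing 20 seeds each into the upper 1 cm of alluvial soil.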

Amaranthus viridis [5] = assay: as above; conditions: 120 g/10a active ingredient, emulsion sprayed seven days after seeding, evaluated 14 days after treatment; for pest or weed control at 1200 g/ha: Amaranthus viridis, 336 h, read-out: herbicidal effect (herbicidal rate), Amaranthus viridis
Procedure, shortened: as §2

Echinochloa crus-galli [6] = assay: as above; conditions: 120 g/10a active ingredient, emulsion sprayed seven days after seeding, evaluated 14 days after treatment; for pest or weed control at 1200 g/ha: Echinochloa crus-galli, 336 h, read-out: herbicidal effect (herbicidal rate), Echinochloa crus-galli
Procedure, shortened: as §2

Chenopodium album [7] = assay: as above; conditions: 120 g/10a active ingredient, emulsion sprayed seven days after seeding, evaluated 14 days after treatment; for pest or weed control at 1200 g/ha: Chenopodium album, 336 h, read-out: herbicidal effect (herbicidal rate), Chenopodium album
Procedure, shortened: as §2

southern crabgrass [8] = assay: Test Example 3: herbicidal effect test by treatment of dry field farming soil (one day after seeding); conditions: 120 g/10a active ingredient, evaluated 14 days after treatment; for pest or weed control at 1200 g/ha: Digitaria ciliaris, 336 h, read-out: herbicidal rate, southern crabgrass
Procedure, shortened: (§3)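 Compound emulsions are sprayed on the soil surface one day after sowing (120 g a.i. per 10 ares) before weeds emerge. Effect is expressed as percent dry-weight reduction versus untreated controls 14 days post-treatment.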

Amaranthus viridis [9] = assay: as above; conditions: 120 g/10a active ingredient, evaluated 14 days after treatment; for pest or weed control at 1200 g/ha: Amaranthus viridis, 336 h, read-out: herbicidal rate, Amaranthus viridis
Procedure, shortened: as §3

Echinochloa crus-galli [10] = assay: as above; conditions: 120 g/10a active ingredient, evaluated 14 days after treatment; for pest or weed control at 1200 g/ha: Echinochloa crus-galli, 336 h, read-out: herbicidal rate, Echinochloa crus-galli
Procedure, shortened: as §3

Chenopodium album [11] = assay: as above; conditions: 120 g/10a active ingredient, evaluated 14 days after treatment; for pest or weed control at 1200 g/ha: Chenopodium album, 336 h, read-out: herbicidal rate, Chenopodium album
Procedure, shortened: as §3

[12] = system: broad leaf weeds (Lindernia pyxidaria and Monochoria vaginalis); assay: Test Example 1: herbicidal effect test by treatment of rice paddy soil (immediately after seeding); conditions: 120 g/10a active ingredient, dry weight vs untreated area, 14 days after treatment; for pest or weed control at 1200 g/ha: 336 h
Procedure, shortened: (§4)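 Puddled, fertilized (N:P:K=17:17:17) paddy soil in Wagner pots; seeds sown 0–1 cm deep, flooded to about 3 cm. Emulsifiable formulations diluted in water and dropped into the water immediately after seeding at 120 g active ingredient per 10 ares; greenhouse. Herbicidal rate from dry weight vs untreated at 14 days.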

Echinochloa crus-galli [13] = assay: as above; conditions: 120 g/10a active ingredient, dry weight vs untreated area, 14 days after treatment; for pest or weed control at 1200 g/ha: in Echinochloa crus-galli, 336 h, read-out: Herbicidal rate (%) Echinochloa crus-galli
Procedure, shortened: as §4

Scirpus juncoides [14] = assay: as above; conditions: 120 g/10a active ingredient, dry weight vs untreated area, 14 days after treatment; for pest or weed control at 1200 g/ha: in Schoenoplectiella juncoides, 336 h, read-out: Herbicidal rate (%) Scirpus juncoides
Procedure, shortened: as §4

[15] = Lindernia pyxidaria, read-out: herbicidal rate (%) Lindernia pyxidaria
[16] = Monochoria vaginalis, read-out: herbicidal rate (%) Monochoria vaginalis
[17] = Monochoria vaginalis, read-out: Herbicidal rate (%) Monochoria vaginalis
[18] = in Lindernia, Lindernia pyxidaria, read-out: Herbicidal rate (%) Lindernia pyxidaria

SMILES | Herbicidal rate (%) Lindernia pyxidaria ([1]; Lindernia pyxidaria) [%] | Herbicidal rate (%) Monochoria vaginalis ([1]; Monochoria vaginalis) [%] | Herbicidal rate (%) Echinochloa crus-galli (Echinochloa crus-galli [2]) [%] | Herbicidal rate (%) Scirpus juncoides (Scirpus juncoides [3]) [%] | herbicidal effect (herbicidal rate), southern crabgrass (southern crabgrass [4]) [%] | herbicidal effect (herbicidal rate), Amaranthus viridis (Amaranthus viridis [5]) [%] | herbicidal effect (herbicidal rate), Echinochloa crus-galli (Echinochloa crus-galli [6]) [%] | herbicidal effect (herbicidal rate), Chenopodium album (Chenopodium album [7]) [%] | herbicidal rate, southern crabgrass (southern crabgrass [8]) [%] | herbicidal rate, Amaranthus viridis (Amaranthus viridis [9]) [%] | herbicidal rate, Echinochloa crus-galli (Echinochloa crus-galli [10]) [%] | herbicidal rate, Chenopodium album (Chenopodium album [11]) [%] | Herbicidal rate (%) Lindernia pyxidaria ([12]; Lindernia pyxidaria) [%] | Herbicidal rate (%) Monochoria vaginalis ([12]; Monochoria vaginalis) [%] | Herbicidal rate (%) Echinochloa crus-galli (Echinochloa crus-galli [13]) [%] | Herbicidal rate (%) Scirpus juncoides (Scirpus juncoides [14]) [%] | pest or weed control at 1200 g/ha [1, 15] [%] | pest or weed control at 1200 g/ha [1, 16] [%] | pest or weed control at 1200 g/ha (Echinochloa crus-galli [2]) [%] | pest or weed control at 1200 g/ha (Scirpus juncoides [3]) [%] | also measured
Cc1c(Cc2ccccc2NS(=O)(=O)C(F)(F)F)c(=O)on1C(C)C [Compound 1-100] | 90 | 100 | 90 | 90 | 90 | 30 | 90 | 90 | 100 | 100 | 100 | 100 | 100 | 100 | 90 | 90 | – | – | – | – | –
Cc1c(Cc2ccccc2NS(=O)(=O)C(F)(F)F)c(=O)on1C(C)(C)C [Compound 1-101] | 90 | 90 | 90 | 90 | 90 | 40 | 90 | 40 | 90 | 90 | 90 | 90 | 90 | 90 | 90 | 90 | – | – | – | – | –
CCC(C)n1oc(=O)c(Cc2ccccc2NS(=O)(=O)C(F)(F)F)c1C (stereo not drawn) [Compound 1-102, 1,1,1-trifluoro-N-[2-[(3-methyl-5-oxo-2-sec-butyl-isoxazol-4-yl)methyl]phenyl]methanesulfonamide] | – | – | – | – | – | – | – | – | – | – | – | – | – | – | – | – | 60 | 90 | 90 | 90 | pest or weed control at 1200 g/ha (southern crabgrass [4]): 80%; pest or weed control at 1200 g/ha (Amaranthus viridis [5]): 40%; pest or weed control at 1200 g/ha (Echinochloa crus-galli [6]): 90%; pest or weed control at 1200 g/ha (Chenopodium album [7]): 0%; pest or weed control at 1200 g/ha (southern crabgrass [8]): 90%; pest or weed control at 1200 g/ha (Amaranthus viridis [9]): 80%; pest or weed control at 1200 g/ha (Echinochloa crus-galli [10]): 90%; pest or weed control at 1200 g/ha (Chenopodium album [11]): 80%; pest or weed control at 1200 g/ha [12, 17]: 100%; pest or weed control at 1200 g/ha [12, 18]: 100%; pest or weed control at 1200 g/ha (Echinochloa crus-galli [13]): 100%; pest or weed control at 1200 g/ha (Scirpus juncoides [14]): 100%
CCC(CC)n1oc(=O)c(Cc2ccccc2NS(=O)(=O)C(F)(F)F)c1C [Compound 1-103] | 60 | 80 | 90 | 80 | 90 | 90 | 90 | 40 | 100 | 100 | 100 | 100 | 80 | 100 | 100 | 90 | – | – | – | – | –
Cc1c(Cc2ccccc2NS(=O)(=O)C(F)(F)F)c(=O)on1CC(C)C [Compound 1-105, 1,1,1-trifluoro-N-[2-[(2-isobutyl-3-methyl-5-oxoisoxazol-4-yl)methyl]phenyl]methanesulfonamide] | – | – | – | – | – | – | – | – | – | – | – | – | – | – | – | – | 90 | 90 | 90 | 90 | pest or weed control at 1200 g/ha (southern crabgrass [4]): 50%; pest or weed control at 1200 g/ha (Amaranthus viridis [5]): 50%; pest or weed control at 1200 g/ha (Echinochloa crus-galli [6]): 90%; pest or weed control at 1200 g/ha (Chenopodium album [7]): 40%; pest or weed control at 1200 g/ha (southern crabgrass [8]): 90%; pest or weed control at 1200 g/ha (Amaranthus viridis [9]): 70%; pest or weed control at 1200 g/ha (Echinochloa crus-galli [10]): 60%; pest or weed control at 1200 g/ha (Chenopodium album [11]): 50%; pest or weed control at 1200 g/ha [12, 17]: 100%; pest or weed control at 1200 g/ha [12, 18]: 100%; pest or weed control at 1200 g/ha (Echinochloa crus-galli [13]): 90%; pest or weed control at 1200 g/ha (Scirpus juncoides [14]): 90%
Cc1c(Cc2ccccc2NS(=O)(=O)C(F)(F)F)c(=O)on1CC(C)(C)C [Compound 1-106] | 90 | 90 | 90 | 90 | 90 | 40 | 90 | 40 | 90 | 90 | 90 | 90 | 90 | 90 | 90 | 90 | – | – | – | – | –
